In assay [1] the test system is Staph. aureus 209P. In words: MIC, standard microtiter assay. Type of assay: cell-based. The settings on record: Staphylococcus aureus; Staph. aureus 209P; Table VIII; read-out: MIC. How it is done: (§1) The in vitro minimal inhibitory concentration (MIC) of the AAJ-271 complex and its factors, and vancomycin were determined for a number of microorganisms using the standard microtite'r assay procedures. The results are shown in the following tables, each of which represents a different production run of the complex.
(§2) The in vitro minimal inhibitory concentration (MIC) and the in vitro minimal bactericidal concentration (MBC) of the AAJ-271 aglycones, pseudo-aglycone and vancomycin were determined for a number of microorganisms using the standard microtiter assay procedures.

In assay [2] the test system is Staph. aureus 2620. As to the kind of experiment: MIC, standard microtiter assay. It counts as cell-based. Conditions: Staphylococcus aureus; Staph. aureus 2620; Table VIII; read-out: MIC. How it is done: as §1, §2
Assay [3] relates to Staph. aureus 675. In words: MIC, standard microtiter assay. Type of assay: cell-based. The settings on record: Staphylococcus aureus; Staph. aureus 675; Table VIII; read-out: MIC. How it is done: as §1, §2
Assay [4] relates to Staph. aureus 910. In words: MIC, standard microtiter assay. It counts as cell-based. Conditions: Staphylococcus aureus; Staph. aureus 910; Table VIII; read-out: MIC. As for the experimental part:
as §1, §2

Assay [5] deals with Staph. aureus HH127. As to the kind of experiment: MIC, standard microtiter assay. Type of assay: cell-based. Conditions: Staphylococcus aureus; Staph. aureus HH127; Table VIII; read-out: MIC. As for the experimental part:
as §1, §2

For assay [6], the system named is Staph. epidermidis 2256. As to the kind of experiment: MIC, standard microtiter assay. Type of assay: cell-based. Conditions: Staphylococcus epidermidis; Staph. epidermidis 2256; Table VIII; read-out: MIC. As for the experimental part:
as §1, §2

Assay [7] has as its system Staph. epidermidis 2265. In words: MIC, standard microtiter assay. The settings on record: Staphylococcus epidermidis; Staph. epidermidis 2265; Table VIII; read-out: MIC. Type of assay: cell-based. As for the experimental part:
as §1, §2

Assay [8] relates to Staph. epidermidis 2479. As to the kind of experiment: MIC, standard microtiter assay. Type of assay: cell-based. The settings on record: Staphylococcus epidermidis; Staph. epidermidis 2479; Table VIII; read-out: MIC. As for the experimental part: as §1, §2
Assay [9] relates to Staph. epidermidis 2588. In words: MIC, standard microtiter assay. Conditions: Staphylococcus epidermidis; Staph. epidermidis 2588; Table VIII; read-out: MIC. Type of assay: cell-based. As for the experimental part: as §1, §2
The test system of assay [10] is Staph. haemolyticus 651. As to the kind of experiment: MIC, standard microtiter assay. Type of assay: cell-based. Conditions: Staphylococcus haemolyticus; Staph. haemolyticus 651; Table VIII; read-out: MIC. How it is done: as §1, §2
The test system of assay [11] is Staph. saprophyticus 2657. In words: MIC, standard microtiter assay. It counts as cell-based. The settings on record: Staphylococcus saprophyticus; Staph. saprophyticus 2657; Table VIII; read-out: MIC. How it is done:
as §1, §2

The subject of assay [12] is Strep. faecalis 34358. As to the kind of experiment: MIC, standard microtiter assay. It counts as cell-based. The settings on record: Enterococcus faecalis; Strep. faecalis 34358; Table VIII; read-out: MIC. As for the experimental part: as §1, §2
Assay [13] deals with Strep. faecalis 657. In words: MIC, standard microtiter assay. It counts as cell-based. Conditions: Enterococcus faecalis; Strep. faecalis 657; Table VIII; read-out: MIC. How it is done: as §1, §2
The test system of assay [14] is Strep. pyogenes (Group A). As to the kind of experiment: MIC, standard microtiter assay. Type of assay: cell-based. Conditions: Streptococcus pyogenes; Strep. pyogenes (Group A); Table VIII; read-out: MIC. How it is done: as §1, §2
The subject of assay [15] is Staph. aureus 209P vancomycin resistant mutant. As to the kind of experiment: MIC, standard microtiter assay. The settings on record: Staphylococcus aureus, read-out: MIC in μg/ml. It counts as cell-based. How it is done: as §2
Assay [16] concerns Staph. epidermidis 2261. As to the kind of experiment: MIC, standard microtiter assay. It counts as cell-based. The settings on record: Staphylococcus epidermidis; Staph. epidermidis 2261; Table VIII; read-out: MIC. As for the experimental part: as §2
Assay [17] deals with Staph. aureus 2620. In words: MBC, standard assay procedures. Conditions: Staphylococcus aureus; Staph. aureus 2620; Table VIII; read-out: MBC. It counts as cell-based. As for the experimental part:
(§3) The in vitro minimal bactericidal concentration (MBC) of the AAJ-271 C, C2 and C3 factors and vancomycin were determined for a number of microorganisms using standard assay procedures.
as §2

Assay [18] has as its system Staph. aureus 675. As to the kind of experiment: MBC, standard assay procedures. Conditions: Staphylococcus aureus; Staph. aureus 675; Table VIII; read-out: MBC. It counts as cell-based. As for the experimental part: as §3, §2
Assay [19] has as its system Staph. aureus HH127. As to the kind of experiment: MBC, standard assay procedures. Type of assay: cell-based. The settings on record: Staphylococcus aureus; Staph. aureus HH127; Table VIII; read-out: MBC. As for the experimental part:
as §3, §2

Assay [20] concerns Staph. epidermidis 2265. In words: MBC, standard assay procedures. It counts as cell-based. The settings on record: Staphylococcus epidermidis; Staph. epidermidis 2265; Table VIII; read-out: MBC. As for the experimental part: as §3, §2
For assay [21], the system named is Staph. epidermidis 2479. As to the kind of experiment: MBC, standard assay procedures. Type of assay: cell-based. The settings on record: Staphylococcus epidermidis; Staph. epidermidis 2479; Table VIII; read-out: MBC. As for the experimental part:
as §3, §2

Assay [22] deals with Staph. haemolyticus 651. As to the kind of experiment: MBC, standard assay procedures. It counts as cell-based. Conditions: Staphylococcus haemolyticus; Staph. haemolyticus 651; Table VIII; read-out: MBC. How it is done: as §3, §2
The test system of assay [23] is Strep. faecalis 34358. In words: MBC, standard assay procedures. Conditions: Enterococcus faecalis; Strep. faecalis 34358; Table VIII; read-out: MBC. Type of assay: cell-based. How it is done:
as §3, §2

The test system of assay [24] is Strep. faecalis 657. In words: MBC, standard assay procedures. Type of assay: cell-based. The settings on record: Enterococcus faecalis; Strep. faecalis 657; Table VIII; read-out: MBC. As for the experimental part:
as §3, §2

The subject of assay [25] is Staph. aureus 209P vancomycin resistant mutant. In words: MBC, standard assay procedures. It counts as cell-based. The settings on record: Staphylococcus aureus, read-out: MBC in μg/ml. As for the experimental part: as §2
In assay [26] the test system is Staph. aureus 209P. As to the kind of experiment: MBC, standard assay procedures. Type of assay: cell-based. The settings on record: Staphylococcus aureus; Staph. aureus 209P; Table VIII; read-out: MBC. As for the experimental part: as §2
In assay [27] the test system is Staph. aureus 910. As to the kind of experiment: MBC, standard assay procedures. Conditions: Staphylococcus aureus; Staph. aureus 910; Table VIII; read-out: MBC. It counts as cell-based. How it is done: as §2
Assay [28] has as its system Staph. epidermidis 2256. In words: MBC, standard assay procedures. It counts as cell-based. The settings on record: Staphylococcus epidermidis; Staph. epidermidis 2256; Table VIII; read-out: MBC. How it is done:
as §2

Assay [29] deals with Staph. epidermidis 2261. In words: MBC, standard assay procedures. Type of assay: cell-based. Conditions: Staphylococcus epidermidis; Staph. epidermidis 2261; Table VIII; read-out: MBC. How it is done:
as §2

In assay [30] the test system is Staph. epidermidis 2588. In words: MBC, standard assay procedures. Type of assay: cell-based. Conditions: Staphylococcus epidermidis; Staph. epidermidis 2588; Table VIII; read-out: MBC. How it is done: as §2
For assay [31], the system named is Staph. saprophyticus 2657. In words: MBC, standard assay procedures. It counts as cell-based. Conditions: Staphylococcus saprophyticus; Staph. saprophyticus 2657; Table VIII; read-out: MBC. How it is done:
as §2

The subject of assay [32] is Strep. pyogenes (Group A). In words: MBC, standard assay procedures. It counts as cell-based. The settings on record: Streptococcus pyogenes; Strep. pyogenes (Group A); Table VIII; read-out: MBC. As for the experimental part: as §2
The test system of assay [33] is A. parvosata. In words: Susceptibility of A. parvosata to antibiotic disks. The settings on record: BBL susceptibility disks on nutrient agar; rifampin 5 ug, penicillin 10 U; 1 week at 28°C. Type of assay: cell-based, Actinomadura parvosata. How it is done:
Susceptibility of A. parvosata to antibiotics was examined by placing BBL susceptibility disks on nutrient agar plates seeded with A. parvosata. Plates were placed at 4°C for 1 hour to permit diffusion of the antibiotics. Diameters of the zones of inhibition were measured after incubation for 1 week at 28°C.

Experimental findings from patent publication EP0255256A2, “Antibiotics produced by actinomadura parvosata” (SMITHKLINE BECKMAN CORPORATION, priority 1986, dated 1988) are described below.

≈ marks a conversion by molar mass, not a printed value.

For `CN(C)C1C(=O)NC2Cc3ccc(cc3)Oc3cc4cc(c3O)Oc3ccc(cc3Cl)C(O)C3NC(=O)C(NC(=O)C4NC(=O)C(NC2=O)c2cc(cc(O)c2Cl)Oc2cc1ccc2O)c1ccc(O)c(c1)-c1c(O)cc(O)cc1C(C(=O)O)NC3=O` (stereo not shown) [Aglycone 2], the MIC in assay [1] stood at 0.4 µg/mL (≈ 0.326 µM); in assay [2], 0.8 µg/mL (≈ 0.652 µM); in [3], 0.4 µg/mL (≈ 0.326 µM); in [4], 0.4 µg/mL (≈ 0.326 µM); in assay [5], 0.4 µg/mL (≈ 0.326 µM); in [6], 0.8 µg/mL (≈ 0.652 µM). The MIC stood at 0.8 µg/mL (≈ 0.652 µM) in [7]; 0.8 µg/mL (≈ 0.652 µM) in [8]; 1.6 µg/mL (≈ 1.3 µM) in assay [9]; 6.3 µg/mL (≈ 5.13 µM) in [10]; 0.8 µg/mL (≈ 0.652 µM) in [11]; 1.6 µg/mL (≈ 1.3 µM) in assay [12]. Also, the MIC in [13] came to 1.6 µg/mL (≈ 1.3 µM); in [14] it was 1.6 µg/mL (≈ 1.3 µM); in assay [15] it was 25 µg/mL (≈ 20.4 µM); in assay [16], 1.6 µg/mL (≈ 1.3 µM). Further, the MBC in assay [17] came out at 0.8 µg/mL (≈ 0.652 µM); in [18] it was 0.4 µg/mL (≈ 0.326 µM); in assay [19], 0.4 µg/mL (≈ 0.326 µM); in assay [20], 0.8 µg/mL (≈ 0.652 µM); in assay [21], 0.8 µg/mL (≈ 0.652 µM); in [22], 6.3 µg/mL (≈ 5.13 µM). Besides, the MBC in assay [23] was above 50 µg/mL; in [24], 6.3 µg/mL (≈ 5.13 µM); in assay [25], 25 µg/mL (≈ 20.4 µM); in assay [26], 0.4 µg/mL (≈ 0.326 µM); in assay [27] it was 0.4 µg/mL (≈ 0.326 µM); in assay [28] it was 0.8 µg/mL (≈ 0.652 µM). For the same molecule, the MBC in [29] came out at 1.6 µg/mL (≈ 1.3 µM); in assay [30], 3.1 µg/mL (≈ 2.53 µM); in [31], 0.8 µg/mL (≈ 0.652 µM); in assay [32], 0.8 µg/mL (≈ 0.652 µM).

Regarding `CO[C@H]1/C=C/O[C@@]2(C)Oc3c(C)c(O)c4c(O)c(c(/C=N/N5CCN(C)CC5)c(O)c4c3C2=O)NC(=O)/C(C)=C\C=C\[C@H](C)[C@H](O)[C@@H](C)[C@@H](O)[C@@H](C)[C@H](OC(C)=O)[C@@H]1C` [rifampin], the “susceptibility of A. parvosata to antibiotic disks (zones of inhibition)” value in assay [33] was “resistant”.

Turning to penicillin, in [33], the “susceptibility of A. parvosata to antibiotic disks (zones of inhibition)” value was “resistant”.
